In paper PMC11432795, “Mutagenesis of the Peptide Inhibitor of ASIC3 Channel Introduces Binding to Thumb Domain of ASIC1a but Reduces Analgesic Activity” (Marine Drugs, 2024):
Entries after “also recorded” stand apart in the source; their conditions may differ. Positions of bridges follow the written chain, without caps; N, C: chain ends. Residues, ends and D or L forms follow the SMILES beside them.

Legend:
rat ASIC1b channel = experiment: Two-electrode voltage clamp, rat ASIC1b in X. laevis oocytes; assay type: cell-based; conditions: 30 s preapplication, activated at pH 5.5
Description: A small portion of the ovary was isolated from frogs under anesthesia induced by a 0.17% solution of procaine methanesulphonate (MS222) (Sigma), followed by treatment with collagenase (1 mg/mL) at room temperature for 2 h. Oocytes at stages IV and V, devoid of follicular membranes, were transferred to ND-96 medium (containing 96 mM NaCl, 5 mM HEPES, 2 mM KCl, 1.8 mM CaCl2, 1 mM MgCl2, pH 7.4). mRNA synthesis was performed from pcDNA3.1 vectors (Invitrogen, Carlsbad, CA, USA) containing the rat ASIC3 gene, as well as pCI vectors containing genes for rat ASIC1a, its mutant analogues, and ASIC1b. mRNA (2.5–10 ng) was then injected into the oocytes. For the ASIC1a/3 heteromeric channels, the mRNA encoding the ASIC1a and ASIC3 subunits were injected in a 1:5 ratio, respectively. Subsequently, the oocytes were incubated for 2–3 days at a temperature of 17–19 °C in ND96 medium supplemented with gentamicin and streptomycin (20 µg/mL each).
Whole-cell electrophysiological recordings of ASIC channels were conducted using a two-electrode voltage-clamp setup. Microelectrodes were filled with 3 M KCl. Recordings from oocytes were carried out at a holding potential of −50 mV, with data filtered at 10 Hz and sampled at a rate of 100 Hz using an L780M ADC (LCard, Moscow, Russia). […]

[1] = All pain tests conducted (overall); assay type: in vivo, ICR mice; conditions: i.m.
Description: Adult male ICR mice (Animal Breeding Facility Branch of Shemyakin–Ovchinnikov Institute of Bioorganic Chemistry, Russian Academy of Sciences, Pushchino, Russia), weighing 20–25 g, were utilized. Animals were housed under controlled conditions, with a room temperature of 23 ± 2 °C, a 12 h light–dark cycle, and ad libitum access to food and water. Test substances were dissolved in saline. Peptides (Ugr9-1 and A23K at doses of 0.002, 0.02, and 0.2 mg/kg) and saline (for the control group) were administered intramuscularly 60 min prior to testing.
The abdominal constriction test of visceral pain (acetic acid-induced writhing pain model) and hyperalgesia induced by complete Freund’s adjuvant (CFA-induced inflammatory pain model) were performed as previously described.
For the von Frey filaments test, mice were positioned in a plastic chamber with access to the inflamed hind paw surface and an electronic von Frey filament (BIO-EVF, Bioseb, Vitrolles, France) was applied with gradually increasing pressure until withdrawal. Data, expressed as the strength of the applied mechanical stimulus from three applications, were averaged, with intervals between exposures of at least 1 min.
Statistical analysis was conducted using analysis of variance (ANOVA) with post hoc Tukey’s test, and data are presented as mean ± standard deviation (S.D.).

[2] = tested on: rat ASIC1a D355A mutant channel; experiment: Two-electrode voltage clamp, D355A mutant ASIC1a in X. laevis oocytes; assay type: cell-based; conditions: 10 µM; pH 5.5 stimulus, conditioning pH 7.4, peptide 30 s; n = 5
Description: (§1) Figure 5 The pivotal role of residue D355 in the ASIC1a channel for the action of the A23K peptide ligand. (A,B) pH dependence of steady-state desensitization (A) and activation (B) in mutant channels (D355A and E357A) compared to the wild-type channel (wt). Each data point represents results from 5 cells. (C–E) Representative current traces illustrating the effects of A23K at a concentration of 10 µM on wt (C), D355A (D), and E357A (E) channels. Currents were evoked by a pH 5.5 stimulus following a conditioning pH of 7.4, with the peptide applied for 30 s preceding the pH stimulus. (F) Bar graph quantifying the effects depicted in (C,D) as a percentage of the corresponding control currents (n = 5). A value of 1.0, represented by a dotted line, corresponds to control measurements at pH 5.5 for each form of ASIC1a. The data are expressed as mean ± SEM; *** p < 0.001, **** p < 0.0001, ns non-significant vs. control, unpaired t-test.
(§2) To introduce D355A and E357A substitutions, we designed two pairs of primers. For D355A substitution, the forward primer sequence was 5′–[…]–3′, and the reverse primer (R2) for D355A was 5′–CTAGGAAGTCCAGGGCAG–3′. For E357A substitution, the forward primer sequence was 5′–[…]–3′, and the reverse primer for E357A was the same as for D355A (designated as “R2”). […]

[3] = tested on: rat ASIC1a E357A mutant channel; experiment: Two-electrode voltage clamp, E357A mutant ASIC1a in X. laevis oocytes; assay type: cell-based; conditions: 10 µM; pH 5.5 stimulus, conditioning pH 7.4, peptide 30 s; mean ± SEM, n = 5
Description: as §1, §2

ASIC3 channels = conditions: ref [18],[19],[20]; cited from earlier work
Description: The 29-amino acid peptide Ugr9a-1, isolated from the venom of the northern sea anemone Urticina grebelnyi, represents a structural class of toxins termed “boundless β-hairpin”.

[4] = cited from earlier work
Description: Selective ligands targeting specific ASIC isoforms are invaluable for structural and functional investigations. Peptide ligands sourced from various animal venoms have emerged as such tools. […] Bot ... || The 29-amino acid peptide Ugr9a-1, isolated from the venom of the northern sea anemone Urticina grebelnyi, represents a structural class of toxins termed “boundless β-hairpin”. […] While the significant involvement of ASIC3 channels in acid-induced, chronic neuropathic and inflammatory pain has been extensively reported, the role of ASIC1a remains less clear.

Compound	effect on rat ASIC1b channel at 50 µM (rat ASIC1b channel)	analgesic effect compared to the wild-type peptide [1]	inhibitory effect on D355A mutant channel [2]	inhibitory effect on E357A mutant channel [3]	modulation of ASIC3 channels (ASIC3 channels)	effect on acid-induced and inflammatory pain ([4]; mouse models, ref [18],[19],[20])	effect on acid-induced and CFA-induced inflammatory pain ([4]; range of doses, ref [18],[20])
CC[C@H](C)[C@H](N)C(=O)N[C@@H](CO)C(=O)N[C@H](C(=O)N[C@@H](CC(=O)O)C(=O)N1CCC[C@H]1C(=O)N1CCC[C@H]1C(=O)N[C@H]1CSSC[C@@H]2NC(=O)[C@H](CC(N)=O)NC(=O)CNC(=O)[C@H](CO)NC(=O)CNC(=O)[C@H](CC(=O)O)NC(=O)[C@H](CCCNC(=N)N)NC(=O)[C@H](Cc3c[nH]cn3)NC(=O)[C@H](Cc3ccc(O)cc3)NC(=O)[C@H](CSSC[C@@H](C(=O)NCC(=O)N[C@@H](C)C(=O)N[C@H](C(=O)O)C(C)C)NC(=O)CNC(=O)[C@H](Cc3ccc(O)cc3)NC(=O)[C@H](CCCCN)NC(=O)[C@H](CC(=O)O)NC(=O)[C@H](Cc3ccc(O)cc3)NC(=O)[C@H](C(C)C)NC2=O)NC(=O)[C@H](Cc2ccccc2)NC(=O)[C@H](CCCNC(=N)N)NC1=O)[C@@H](C)CC [A23K] (H-ISIDPPCRFCYHRDGSGNCVYDKYGCGAV-OH; disulfide 7-19, 10-26)	Lack of effect	significantly less pronounced analgesic effect compared to the wild-type peptide	no significant effect; also recorded: entirely abolished	47.1 ± 7.7%			
CC[C@H](C)[C@H](N)C(=O)N[C@@H](CO)C(=O)N[C@H](C(=O)N[C@@H](CC(=O)O)C(=O)N1CCC[C@H]1C(=O)N1CCC[C@H]1C(=O)N[C@H]1CSSC[C@@H]2NC(=O)[C@H](CC(N)=O)NC(=O)CNC(=O)[C@H](CO)NC(=O)CNC(=O)[C@H](CC(=O)O)NC(=O)[C@H](CCCNC(=N)N)NC(=O)[C@H](Cc3c[nH]cn3)NC(=O)[C@H](Cc3ccc(O)cc3)NC(=O)[C@H](CSSC[C@@H](C(=O)NCC(=O)N[C@@H](C)C(=O)N[C@H](C(=O)O)C(C)C)NC(=O)CNC(=O)[C@H](Cc3ccc(O)cc3)NC(=O)[C@H](C)NC(=O)[C@H](CC(=O)O)NC(=O)[C@H](Cc3ccc(O)cc3)NC(=O)[C@H](C(C)C)NC2=O)NC(=O)[C@H](Cc2ccccc2)NC(=O)[C@H](CCCNC(=N)N)NC1=O)[C@@H](C)CC [Ugr9-1] (H-ISIDPPCRFCYHRDGSGNCVYDAYGCGAV-OH; disulfide 7-19, 10-26)					selectively modulates ASIC3 channels	promising results in mitigating acid-induced and inflammatory pain	attenuates acid-induced and CFA-induced inflammatory pain in mice across a range of doses
